# Data from article PMC6270778, “Novel Cinnamic Acid Derivatives as Antioxidant and Anticancer Agents: Design, Synthesis and Modeling Studies” (Molecules, 2014).
# Several values for one entry are separate records, joined by “and”; a condition that tells them apart may be missing. Equal entries are not always repeated. Marks after values point to notes of the source that are not given here.
# What was measured:
# [1] = ABTS+ decolorization assay; settings: 0.1 mM
# Experimental: The ABTS^•+ is derived from the oxidation of ABTS by potassium persulfate. It is a decolorization assay. The addition of electron-donating antioxidants leads to ABTS^•+ reduction. The chemistry taking place involves the direct generation of the ABTS^•+ with no involvement of an intermediary radical.
# In this assay, ethanol is used for the dilution of the ABTS^+• solution. ABTS is dissolved in water to a 7 mM and reacts with 2.45 mM […] to produce the ABTS radical cation (ABTS^+•) by allowing the mixture to stand in the dark at room temperature for 12–16 h before use. Ten μL of diluted ABTS^+• solution (734 nm) is added to 10 μL of antioxidant compounds or Trolox standards (final concentration 0–0.1 mM) in ethanol and the absorbance is measured at 30 °C exactly 1 min after the initial mixing (Table 3).
# [2] = Superoxide radical scavenging activity (non-enzymatic, PMS/NADH, NBT method); settings: 0.1 mM; no = no action under the used experimental conditions
# Experimental: The superoxide anion radical (O2^−·) is less toxic than the hydroxyl radical, but still being one of the most known toxic ROS. Two different experimental assays are followed for the determination of superoxide anion radical scavenging activity: (i) one involves an enzymatic production of superoxide anions and (ii) the other is supported by a non- enzymatic procedure. Herein the test is performed at 0.1 mM concentration, generating superoxide anion radicals by a non-enzymatically assay (Table 3). Compound 1i presented the highest activity, followed by compound 1ii (75% and 50%, respectively).
# Superoxide radicals were produced non-enzymatically by mixing PMS, NADH and air–oxygen. The nitroblue tetrazolium method was used for the estimation of the produced radicals. The reaction mixture containing compounds (0.1 mM), 3 μM PMS, 78 μM NADH, and 25 μM NBT in 19 μM phosphate buffer pH 7.4 was incubated for 2 min at room temperature. The acrylic acids were preincubated for 2 min before adding NADH (Table 4) and the absorption was recorded at 560 nm.
# [3] = Determination of RM values by reversed phase TLC (RPTLC); assay type: physicochemical; settings: CH3OH:H2O:CH3COOH (77:23:0.1), average of at least 10 measurements
# Experimental: Lipophilicity represents a significant physicochemical property for the absorption, distribution, metabolism and excretion of drugs (ADME properties). In this study the experimentally lipophilicity as RM values is measured by the reverse-phase thin layer chromatography (RPTLC), a reliable, fast and convenient method. The obtained values were compared with the corresponding log P values in n-octanol-buffer estimated by ClogP [33, 34]. It is well known that lipophilicity plays an important role at the ADME properties. In the present study additionally, it influences the radical scavenging property (i.e., in an aqueous phase) or the chain-breaking antioxidant activity (i.e., in biological membranes).
# Reversed phase TLC (RPTLC) was studied using silica gel plates saturated with 55% (v/v) liquid paraffin in light petroleum ether and methanol/water mixture (77/23, v/v) containing 0.1% of acetic acid was used as a mobile phase. Spots were detected under UV light or by iodine vapours. RM values were determined by the corresponding Rf values (from ten individual measurements) using the equation RM = log [(1/Rf) − 1] [23, 24, 25].
# MDA-MB-231 (breast) = experiment: SRB cytotoxicity assay, MDA-MB-231; assay type: cell-based; settings: Homo sapiens, 50% growth inhibition, 48 h exposure
# Experimental: (§1) Human cancer cell lines used as targets were HT-29 (colon), A-549 (lung), OAW-42 (ovarian), MDA-MB-231 (breast), HeLa (immortal cells from cervical cancer). All cells were obtained from the American Type Culture Collection (ATCC). Cells were routinely grown as monolayer cell cultures in T-75 flasks (Costar) in an atmosphere containing 5% CO2 in air and 100% relative humidity at 37 °C and subcultured twice a week, restricting the total number of cell passages below 20. The culture medium used was Dulbecco’s modified Eagle’s medium (DMEM, Gibco, Grand Island, NY, USA) supplemented with 10% fetal bovine serum (Gibco), 2 mM glutamine (Sigma), 100 μg/mL streptomycin and 100 IU/mL penicillin.
# (§2) Cell passages were carried out by detaching adherent, logarithmically growing cells after addition of 2–3 mL of a mixture of 0.05% solution of trypsin (Gibco, 1:250) in phosphate-buffered saline (PBS) with 0.02% EDTA and incubation for 3–5 min at 37 °C. For the experiments, cells were plated (100 μL containing 10,000 cells/well) in 96-well flat-bottom microplates microplates (Costar-Corning, Acton, MA 01720, USA) so that untreated cells were in exponential growth phase at the time of cytotoxicity evaluation. Cells were left for 24 h at 37 °C to resume exponential growth and stabilization and afterwards exposed to tested agents for 48 h by the addition of an equal volume (100 μL) of either complete culture medium (control wells), or twice the final drug concentrations diluted in complete culture medium (test wells). Drug cytotoxicity was measured by means of the SRB colorimetric assay estimating the survival fractions (SF) as the percent of control (untreated cells) absorbance. The SRB assay was carried out as previously described and modified by our group. In brief, culture medium was aspirated prior to fixation using a microplate-multiwash device (Tri-Continent Scientific, Inc., Grass Valley, CA, USA) and 50 μL of 10% cold (4 °C) trichloroacetic acid (TCA) were gently added to the wells. Microplates were left for 30 min at 4 °C, washed five times with deionized water and left to dry at room temperature for at least 24 h. Subsequently, 70 μL of 0.4% (w/v) sulforhodamine B (Sigma) in 1% acetic acid solution were added to each well and left at room temperature for 20 min. SRB was removed and the plates were washed five times with 1% acetic acid before air drying. Bound SRB was solubilized with 200 μL of 10 mM unbuffered Tris-base solution and plates were left on a plate shaker for at least 10 min. Absorbance was read in a 96-well plate reader at 492 nm subtracting the background measurement at 620 nm. The test optical density (OD) value was defined as the absorbance of each individual well, minus the blank value (“blank” is the mean optical density of the background control wells, n = 8). Mean values and the coefficient of variation (CV) from six replicate wells were calculated automatically. Results were expressed as the “survival fraction” (SF), as shown below.
# (§3) For each tested compound a dose-effect curve was produced. Sextuplicate determinations gave a CV (Standard Deviation/mean %) of much less than 10%, resulting in standard error (SE) which was very low in all cases. The data showing inhibition of cellular growth are expressed as the fraction of cells that remains unaffected (fu) (survival fraction, SF), which is derived from the following equation: fu = ODx/ODc where ODx and ODc represent the test and the control optical density, respectively.
# A-549 (lung) = experiment: SRB cytotoxicity assay, A-549; assay type: cell-based; settings: Homo sapiens, A549, 50% growth inhibition, 48 h exposure
# Experimental: as §1, §2, §3
Structure (SMILES),ABTS+· (%) (±SD) [1],O2−· (%) (±SD) [2],RM (±SD) [3],IC50 (MDA-MB-231 (breast)) [µM],IC50 (A-549 (lung)) [µM]
"O=C(O)C(=CC=Cc1ccc([N+](=O)[O-])cc1)c1ccccc1 [Compound 2i, 5-(4-Nitrophenyl)-2-phenylpenta-2,4-dienoic acid]",26 ± 0.5%,no,−0.706 (0.062) ^e,199 ± 1.9,134 ± 1.6
"O=C(O)C(=CC(Br)=Cc1ccccc1)c1ccccc1 [Compound 4i, 4-Bromo-2,5-diphenylpenta-2,4-dienoic acid]",24 ± 0.5%,no,0.566 (0.001) ^e,250 ± 1.2,210 ± 1
"N#Cc1ccc(C=CC(=O)O)cc1 [Compound 1ii, 3-(4-Cyanophenyl)acrylic acid]",47.4% and 47 ± 0.8%,50% and 50 ± 0.5%,−0.972 (0.032) ^e,> 240,> 240
"O=C(O)C(=CC=Cc1ccccc1)c1ccccc1 [Compound 3i, 2,5-Diphenylpenta-2,4-dienoic acid]",26 ± 0.8%,no,0.987 (0.018) ^e,> 240,> 240
"O=C(O)C=CC=Cc1ccccc1 [Compound 3ii, 5-Phenylpenta-2,4-dienoic acid]",31 ± 1.1%,no,−0.893 (0.002) ^e,> 240,> 240
"O=C(O)C=CC=Cc1ccc([N+](=O)[O-])cc1 [Compound 2ii, 5-(4-Nitrophenyl)penta-2,4-dienoic acid]",35 ± 0.9%,no,−0.868 (0.019) ^e,> 240,> 240
"N#Cc1ccc(C=C(C(=O)O)c2ccccc2)cc1 [Compound 1i, 3-(4-Cyanophenyl)-2-phenylacrylic acid]",26 ± 0.4%,75% and 75 ± 1.0%,−0.895 (0.004) ^e,> 240,> 240
"O=C(O)C=CC(Br)=Cc1ccccc1 [Compound 4ii, 4-Bromo-5-phenylpenta-2,4-dienoic acid]",26 ± 0.4%,no,−0.847 (0.044) ^e,47.5 ± 0.7,173.5 ± 1.4
